According to US20250360145A1, “CSF-1R INHIBITORS AND USES THEREOF” (Myrobalan Therapeutics, Inc., priority 2022, published 2025):
Read-outs that look alike come from different tables or passages of the source.

Columns and labels:
PDGFRβ = PDGFRβ (Homo sapiens (Human), UniProt P09619); experiment: Biochemical HTRF kinase assay, PDGFRβ; details: for IC50: recombinant human protein, read-out: PDGFR-1β IC50; for PDGFR-1β Fold: selectivity: IC50 of PDGFR-1β as multiple of IC50 of CSF-1R;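 on all read-outs here: kinase reaction with substrate/ATP mix run 1 h at room temperature in 384-well format, HTRF signal detection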
Chain of PDGFRβ (P09619 33-1106): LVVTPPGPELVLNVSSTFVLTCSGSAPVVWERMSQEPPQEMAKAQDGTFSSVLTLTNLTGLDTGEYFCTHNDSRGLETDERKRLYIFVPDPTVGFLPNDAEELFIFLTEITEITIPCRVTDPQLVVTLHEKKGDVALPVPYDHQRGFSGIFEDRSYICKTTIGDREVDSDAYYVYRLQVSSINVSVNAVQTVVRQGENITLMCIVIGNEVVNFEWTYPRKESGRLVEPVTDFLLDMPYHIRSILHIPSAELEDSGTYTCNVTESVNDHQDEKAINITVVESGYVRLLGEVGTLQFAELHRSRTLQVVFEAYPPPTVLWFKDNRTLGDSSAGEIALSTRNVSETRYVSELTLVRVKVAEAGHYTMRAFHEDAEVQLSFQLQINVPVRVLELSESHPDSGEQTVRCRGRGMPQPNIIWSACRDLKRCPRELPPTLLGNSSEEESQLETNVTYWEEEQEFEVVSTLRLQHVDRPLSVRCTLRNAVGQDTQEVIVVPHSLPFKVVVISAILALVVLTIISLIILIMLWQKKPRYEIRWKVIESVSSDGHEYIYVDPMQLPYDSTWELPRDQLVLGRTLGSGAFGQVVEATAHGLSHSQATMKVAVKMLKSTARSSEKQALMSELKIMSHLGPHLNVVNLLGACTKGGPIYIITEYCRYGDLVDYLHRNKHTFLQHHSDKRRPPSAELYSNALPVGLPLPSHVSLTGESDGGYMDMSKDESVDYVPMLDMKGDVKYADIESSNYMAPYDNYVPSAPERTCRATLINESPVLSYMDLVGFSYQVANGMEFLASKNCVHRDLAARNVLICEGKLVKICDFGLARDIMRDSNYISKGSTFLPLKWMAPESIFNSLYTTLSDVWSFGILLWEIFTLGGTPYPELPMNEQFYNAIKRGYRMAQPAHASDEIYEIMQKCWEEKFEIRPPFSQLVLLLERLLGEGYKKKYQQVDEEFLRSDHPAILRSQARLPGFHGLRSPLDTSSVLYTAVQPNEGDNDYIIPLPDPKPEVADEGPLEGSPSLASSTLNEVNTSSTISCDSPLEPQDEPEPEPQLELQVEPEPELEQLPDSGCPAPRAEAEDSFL

FLT3 = FLT3 (Homo sapiens (Human), UniProt P36888); experiment: Biochemical HTRF kinase assay, FLT3; details: for IC50: recombinant human protein; for FLT3 Fold: selectivity: IC50 of FLT3 as multiple of IC50 of CSF-1R
Chain of FLT3 (P36888 27-993): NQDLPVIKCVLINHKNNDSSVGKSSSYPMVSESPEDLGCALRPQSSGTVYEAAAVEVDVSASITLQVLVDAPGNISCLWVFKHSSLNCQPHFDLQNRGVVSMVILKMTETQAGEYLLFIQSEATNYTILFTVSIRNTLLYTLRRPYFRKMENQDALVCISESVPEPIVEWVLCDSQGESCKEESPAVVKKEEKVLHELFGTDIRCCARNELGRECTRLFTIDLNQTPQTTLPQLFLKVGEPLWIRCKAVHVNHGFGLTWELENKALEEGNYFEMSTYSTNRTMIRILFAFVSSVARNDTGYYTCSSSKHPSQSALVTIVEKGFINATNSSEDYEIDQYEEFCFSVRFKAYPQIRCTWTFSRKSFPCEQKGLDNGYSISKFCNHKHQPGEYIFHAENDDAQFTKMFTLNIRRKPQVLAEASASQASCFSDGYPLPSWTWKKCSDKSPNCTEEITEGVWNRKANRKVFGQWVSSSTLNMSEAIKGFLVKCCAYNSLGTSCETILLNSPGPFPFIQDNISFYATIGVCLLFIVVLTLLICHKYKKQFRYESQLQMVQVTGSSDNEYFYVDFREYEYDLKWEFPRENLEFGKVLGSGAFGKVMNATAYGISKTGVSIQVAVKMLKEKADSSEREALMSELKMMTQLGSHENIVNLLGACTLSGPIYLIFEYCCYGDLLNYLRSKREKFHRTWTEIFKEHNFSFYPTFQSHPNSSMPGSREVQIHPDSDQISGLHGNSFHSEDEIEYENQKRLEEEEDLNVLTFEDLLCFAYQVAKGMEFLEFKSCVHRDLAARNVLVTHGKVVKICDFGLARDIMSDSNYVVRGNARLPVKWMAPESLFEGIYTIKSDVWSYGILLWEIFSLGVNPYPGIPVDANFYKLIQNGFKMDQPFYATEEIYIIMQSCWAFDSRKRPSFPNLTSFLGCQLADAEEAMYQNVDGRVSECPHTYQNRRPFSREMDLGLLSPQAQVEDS

c-Kit = c-Kit (Homo sapiens (Human), UniProt P10721); experiment: Biochemical HTRF kinase assay, c-Kit; details: for IC50: recombinant human protein, read-out: cKit IC50; for cKit Fold: selectivity: IC50 of cKit as multiple of IC50 of CSF-1R;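 on all read-outs here: enzyme reaction with substrate and ATP run in 384-well plates for 1 hour at room temperature, kinase activity detected by HTRF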
Chain of c-Kit (P10721 26-976): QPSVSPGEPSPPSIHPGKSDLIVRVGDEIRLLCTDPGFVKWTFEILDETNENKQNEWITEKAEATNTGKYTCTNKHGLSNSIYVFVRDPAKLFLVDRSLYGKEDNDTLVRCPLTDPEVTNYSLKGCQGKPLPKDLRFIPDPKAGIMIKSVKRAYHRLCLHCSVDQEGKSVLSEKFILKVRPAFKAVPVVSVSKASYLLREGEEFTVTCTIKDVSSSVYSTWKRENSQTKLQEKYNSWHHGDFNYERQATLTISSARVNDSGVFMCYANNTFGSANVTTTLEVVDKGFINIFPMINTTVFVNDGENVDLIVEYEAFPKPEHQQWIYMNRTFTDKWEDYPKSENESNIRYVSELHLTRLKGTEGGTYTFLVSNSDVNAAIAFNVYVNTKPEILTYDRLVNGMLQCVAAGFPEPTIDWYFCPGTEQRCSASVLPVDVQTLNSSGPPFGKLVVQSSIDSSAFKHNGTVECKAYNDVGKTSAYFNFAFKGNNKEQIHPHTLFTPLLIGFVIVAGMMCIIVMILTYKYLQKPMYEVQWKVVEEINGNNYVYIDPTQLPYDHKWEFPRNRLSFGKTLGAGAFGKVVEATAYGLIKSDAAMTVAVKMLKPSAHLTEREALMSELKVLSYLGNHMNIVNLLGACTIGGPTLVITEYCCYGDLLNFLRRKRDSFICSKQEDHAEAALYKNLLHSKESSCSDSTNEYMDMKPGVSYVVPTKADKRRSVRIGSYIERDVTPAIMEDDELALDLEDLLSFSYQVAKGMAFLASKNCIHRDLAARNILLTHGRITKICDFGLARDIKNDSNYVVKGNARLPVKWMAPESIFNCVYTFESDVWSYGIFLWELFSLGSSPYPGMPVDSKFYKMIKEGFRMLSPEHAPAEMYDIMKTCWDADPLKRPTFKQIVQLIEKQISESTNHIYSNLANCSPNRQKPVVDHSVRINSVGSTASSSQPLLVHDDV

[1] = tested on: human iPSC-derived microglia (hiPSC-MG); experiment: hiPSC-MG survival (Presto-Blue viability); assay type: cell-based; details: 48 h treatment; for hiPSC-MG survival: FIG. 7B
CSF-1R = CSF-1R (Homo sapiens (Human), UniProt P07333); experiment: Biochemical HTRF kinase assay, CSF-1R; details: recombinant human CSF-1R;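 further: enzyme incubated with inhibitor plus a substrate and ATP mix for one hour at room temperature before HTRF detection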
Chain of CSF-1R (P07333 20-972): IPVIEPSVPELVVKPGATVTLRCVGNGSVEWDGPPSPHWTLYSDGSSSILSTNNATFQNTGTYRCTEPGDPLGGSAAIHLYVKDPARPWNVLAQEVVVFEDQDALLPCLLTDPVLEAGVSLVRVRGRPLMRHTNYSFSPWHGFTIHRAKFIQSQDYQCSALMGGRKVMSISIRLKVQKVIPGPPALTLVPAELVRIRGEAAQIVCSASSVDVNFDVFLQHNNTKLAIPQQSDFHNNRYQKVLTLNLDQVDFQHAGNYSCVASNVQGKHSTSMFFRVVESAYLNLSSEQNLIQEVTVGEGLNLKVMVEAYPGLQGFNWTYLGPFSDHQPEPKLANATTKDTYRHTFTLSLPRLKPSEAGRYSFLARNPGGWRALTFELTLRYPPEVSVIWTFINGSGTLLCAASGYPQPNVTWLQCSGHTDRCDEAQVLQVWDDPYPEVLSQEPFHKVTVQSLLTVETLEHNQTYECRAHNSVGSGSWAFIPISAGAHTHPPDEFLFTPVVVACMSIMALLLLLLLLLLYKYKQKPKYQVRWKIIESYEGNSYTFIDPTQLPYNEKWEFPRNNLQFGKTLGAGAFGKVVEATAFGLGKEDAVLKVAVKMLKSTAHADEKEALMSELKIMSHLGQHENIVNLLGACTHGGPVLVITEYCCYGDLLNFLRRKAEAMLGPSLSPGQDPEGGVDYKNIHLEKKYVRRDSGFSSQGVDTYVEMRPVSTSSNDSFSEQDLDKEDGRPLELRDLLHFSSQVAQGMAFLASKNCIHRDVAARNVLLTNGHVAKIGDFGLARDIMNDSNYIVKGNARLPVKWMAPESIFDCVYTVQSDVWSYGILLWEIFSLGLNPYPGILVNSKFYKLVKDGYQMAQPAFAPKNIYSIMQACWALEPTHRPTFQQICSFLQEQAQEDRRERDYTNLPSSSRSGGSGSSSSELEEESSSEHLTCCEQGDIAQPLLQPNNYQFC

[2] = Brain protein binding study; assay type: in vitro ADME; details: mouse brain homogenate, equilibrium dialysis 4 hours
Procedure: On the day of experiment, brain homogenate was thawed in water bath at room temperature and then incubated at 37° C. for 10 min before use. Pretreat the dialysis membrane according to the manufacturer's instructions: the dialysis membrane strips were soaked in ultra pure water at room temperature for approximately 1 hr. After that, each membrane strip that contains 2 membranes was separated and soaked in ethanol:water (20:80 v:v) for approximately 20 min, after which it was ready for use or was stored in the solution at 2-8° C. for up to 1 month. Prior to the experiment, the membrane was rinsed and soaked for 20 min in ultra pure water for use. Then working solutions (400 μM) of test compound and control compound were prepared. Aliquots of working solutions (3 μL) were spiked into blank matrix (597 μL) to achieve final concentrations and mixed thoroughly. Aliquots of 50 μL loading matrix containing test compound or control compound in triplicate was transferred to Sample Collection Plate, respectively. The samples were matched with opposite blank buffer to obtain a final volume of 100 μL with a volume ratio of matrix:Dialysis Buffer (1:1, v:v) in each well immediately. The stop solution was added to these T0 samples of test compound and control compound. The plate was sealed and shaked at 800 rpm for 10 min. Then these T0 samples were stored at 2-8° C. pending further process along with other post-dialysis samples. The dialysis instrument was assembled following manufacture's instructions. An aliquot of 100 μL of the loading matrix containing test compound or control compound was transferred to the donor side of each dialysis well in triplicate and 100 μL of the Dialysis Buffer was loaded to the receiver side of the well. Then the plate was rotated at approximately 100 rpm in a humidified incubator with 5% CO2 at 37±1° C. for 4 hours. At the end of the dialysis, aliquots of 50 μL samples from the buffer side and matrix side of the dialysis device were taken into new 96-well plates (Sample Collection Plates). An equal volume of opposite blank matrix (buffer or matrix) in each sample was added to reach a final volume of 100 μL with volume ratio of matrix:Dialysis Buffer at 1:1 (v:v) in each well. All samples were further processed by protein precipitation for LC/MS/MS analysis.

primary rat microglia = experiment: Primary rat microglia survival; assay type: cell-based; details: 3 days of exposure, Iba1 staining
Description: To assess the potency of CSF1R inhibitors disclosed herein we isolated and expanded primary brain glia from rat cortices in-vitro. This glial culture is about 20% microglia that is supported mostly by astrocytes that make up the rest of the population. The brain glia was exposed to CSF1R inhibitors for 3 days followed by paraformaldehyde fixation and immunofluorescence staining for the microglia marker, Iba1. The glial was imaged using a high-content-imager and the changes in microglia content were quantified. Using GraphPad Prism, a four-parameter logistic regression was applied to determine the potency of the CSF1R inhibitors.

EOC2 cell = experiment: Cell proliferation assay, EOC2; assay type: cell-based, mouse; details: Mus musculus, 72 h
[3] = In vivo PK study (plasma and brain exposure); design: species or system CD1 mouse; details: for Kp uu / half-life / AUC(0-t) / AUC(0-inf) / clearance / Vd / bioavailability / Cmax / Tmax: male; for Kp uu: CD1, brain, BBB penetration; for half-life: CD1, mouse; for clearance: read-out: IV-2mpk CL (converted); for Vd: read-out: IV-2mpk VSS; for bioavailability: p.o. 45 mg/kg vs i.v. 2 mg/kg; for Cmax: read-out: PO-45mpk Cmax; for Tmax: read-out: PO-45mpk Tmax
Procedure: The PK profiles were determined in CD1 mouse, and all the procedures and protocols were in accordance with the National Institutes of Health Guide for the Care and Use of Laboratory Animals. The CD1 mouse were purchased from JH Laboratory Animal Co. LTD. The CD1 mouse (23-30 g, 6-8 weeks, male) were randomized and divided into five groups consisting of 21 mouse per group. The test compounds that have been formulated were subjected to PK studies. The test compounds were administrated via p.o. at 45 mg/kg and i.v. at 2 mg/kg. […] The blood samples were placed on wet ice, and serum was collected after centrifugation. Serum samples were frozen and stored at −70° C. The brain samples were dried on filtrate paper, and snap frozen on dry ice and further stored at −70° C. Then, the blood samples and brain samples were further analyzed by LC-MS/MS (Triple Quad 6500+).

[4] = tested on: Ba/F3_CSF-1R (stably expressing human CSF-1R kinase); experiment: Cell proliferation assay, Ba/F3_CSF-1R; assay type: cell-based; details: BaF3, 72 h
[5] = EOC2 cells, 72 hours treatment, read-out: ECO2 EC50
[6] = serum, iv, 2 mg/kg, CD1 mouse, i.v. 2 mg/kg, read-out: IV-2mpk T1/2 (converted)
[7] = serum, po, 45 mg/kg, CD1 mouse, p.o. 45 mg/kg, read-out: PO-45mpk T1/2 (converted)
[8] = CD1, po, mouse, p.o. 45 mg/kg, brain, read-out: PO-45mpk AUClast-brain
[9] = CD1, po, mouse, p.o. 45 mg/kg, plasma, Tables 7 and 8, read-out: PO-45mpk AUClast-plasma
[10] = serum, iv, CD1 mouse, i.v. 2 mg/kg, read-out: IV-2mpk AUCInf
[11] = serum, iv, CD1 mouse, i.v. 2 mg/kg, read-out: IV-2mpk AUClast
[12] = serum, iv, CD1 mouse, i.v. 2 mg/kg
[13] = serum, po, CD1 mouse, p.o. 45 mg/kg, Tables 5 and 6, read-out: PO-45mpk AUClast
[14] = serum, po, CD1 mouse, p.o. 45 mg/kg, read-out: PO-45mpk AUCInf
[15] = serum, po, CD1 mouse, p.o. 45 mg/kg
[16] = Ba/F3_CSF-1R cells, 72 hours treatment, read-out: CSF-1R BaF3 EC50
[17] = read-out: CSF-1R BaF3 EC50 (nM)

Row | SMILES | IC50 (PDGFRβ) [nM] | PDGFR-1β Fold (PDGFRβ) [fold] | IC50 (c-Kit) [nM] | cKit Fold (c-Kit) [fold] | IC50 (CSF-1R; Table 2) [nM] | IC50 (CSF-1R; Table 3) [nM] | BPB-mouse (Bound) (%) [2] [%] | primary rat microglia survival (primary rat microglia) | Kp uu ([3]; po, mouse, p.o. 45 mg/kg) | half-life [3, 6] [h] | AUC(0-t) [3, 8] [ng·h/mL] | AUC(0-t) [3, 9] [ng·h/mL] | AUC(0-inf) [3, 10] [ng·h/mL] | AUC(0-t) [3, 11] [ng·h/mL] | clearance [3, 12] [mL/min/kg] | Vd [3, 12] [L/kg] | bioavailability ([3]; serum, po, CD1 mouse) [%] | AUC(0-t) [3, 13] [ng·h/mL] | Cmax [3, 15] [ng/mL] | Tmax [3, 15] [h] | further results
1 | COc1ccc(COc2ncc(Cc3ccnc4cc(OC)cnc34)cc2OC)nc1 [Example 16, 3-methoxy-8-((5-methoxy-6-((5-methoxypyridin-2-yl)methoxy)pyridin-3-yl)methyl)-1,5-naphthyridine] | > 1000 | >100 | 881 | >100 | 2.1 | 2.1 | 98.10 | dose-dependent inhibition of primary rat microglia survival | 1.1 | 2.52 | 76800 | 210000 | 4460 | 4460 | 7.47 | 0.955 | 215 | 216000 | 31400 | 1 | IC50 (FLT3): > 1000 nM; FLT3 Fold (FLT3): >100 fold; hiPSC-MG survival IC50 compared with BLZ945 [1]: lower than that of BLZ945; IC50 ([1]; Homo sapiens, Microglia): 31.5 nM; EC50 (EOC2 cell; [5]): 39.2 nM; IV-2mpk CL ([3]; CD1 mouse, i.v. 2 mg/kg): 7.47 mL/min/kg; IV-2mpk T1/2 ([3]; CD1 mouse, i.v. 2 mg/kg): 2.52 h; half-life [3, 7]: 1.9 h; AUC(0-inf) [3, 14]: 216000 ng·h/mL; EC50 [4, 16]: 61.7 nM
2 | COc1ccc(COc2ncc(Cc3ccnc4cc(N5CCN(C)CC5)cnc34)cc2OC)nc1 [Example 116] | > 1000 | >100 | > 1000 | >100 | 3 | 3 | 95.5 | – | 0.99 | 6.42 | 4250 | 4620 | 578 | 566 | 57.7 | 9.54 | 42.1 | 5370 | 2310 | 0.25 | IC50 (FLT3): > 1000 nM; FLT3 Fold (FLT3): >100 fold; EC50 (EOC2 cell; [5]): 10 nM; half-life [3, 7]: 4.87 h; AUC(0-inf) [3, 14]: 5480 ng·h/mL; EC50 [4, 16]: 33.8 nM
3 | COc1ccc(COc2ncc(Cc3ccnc4cc(-c5ccn(C)n5)cnc34)cc2OC)nc1 [Example 134, 8-((5-methoxy-6-((5-methoxypyridin-2-yl)methoxy)pyridin-3-yl)methyl)-3-(1-methyl-1H-pyrazol-3-yl)-1,5-naphthyridine] | 394 | 59.7 | – | – | 6.6 | 6.6 | 98.8 | dose-dependent inhibition of primary rat microglia survival | 0.75 | 1.39 | 44400 | 88400 | 1890 | 1860 | 17.7 | 1.45 | 227 | 96400 | 18100 | 0.5 | hiPSC-MG survival IC50 compared with BLZ945 [1]: lower than that of BLZ945; hiPSC-MG survival [1]: dose-dependent inhibition of hiPSC-MG survival; EC50 (EOC2 cell; [5]): 5.5 nM; half-life [3, 7]: 1.86 h; AUC(0-inf) [3, 14]: 96500 ng·h/mL; EC50 [4, 17]: 7.1 nM
4 | COc1cnc2c(Cc3cnc(OCc4cc5n(n4)C[C@H](OC)C5)c(OC)c3)ccnc2c1 [Example 136, (R)-3-methoxy-8-((5-methoxy-6-((5-methoxy-5,6-dihydro-4H-pyrrolo[1,2-b]pyrazol-2-yl)methoxy)pyridin-3-yl)methyl)-1,5-naphthyridine] | > 1000 | >100 | > 1000 | >100 | 5 | 5 | 97.3 | dose-dependent inhibition of primary rat microglia survival | 0.94 | 0.777 | 16200 | 93200 | 4940 | 4940 | 6.75 | 0.274 | 77.1 | 85700 | 51200 | 0.5 | hiPSC-MG survival [1]: dose-dependent inhibition of hiPSC-MG survival; EC50 (EOC2 cell; read-out: ECO2 EC50 (nM)): 94.8 nM; EC50 [4, 17]: 66.2 nM
